Tests used:
[1] = system: ovarian cancer cells (PA-1); test: Cancer cell line growth inhibition (SRB assay); format: cell-based; settings: Homo sapiens, PA-1; read-out: Cancer Cell Line GI50 Range PA-1
Breast cancer cells = test: Cancer cell line growth inhibition (SRB assay); format: cell-based; settings: Homo sapiens; MDA-MB-468; read-out: Cancer Cell Line GI50 Range MDA-MB-468
human TTK = biological target: T1, human TTK (Homo sapiens, UniProt P33981); test: TTK inhibition assay (indirect ELISA); format: biochemical; settings: read-out: TTK IC50 Range
T1 construct: amino terminal GST fusion of full length human TTK; purchased Invitrogen
T1 sequence (P33981 1-857): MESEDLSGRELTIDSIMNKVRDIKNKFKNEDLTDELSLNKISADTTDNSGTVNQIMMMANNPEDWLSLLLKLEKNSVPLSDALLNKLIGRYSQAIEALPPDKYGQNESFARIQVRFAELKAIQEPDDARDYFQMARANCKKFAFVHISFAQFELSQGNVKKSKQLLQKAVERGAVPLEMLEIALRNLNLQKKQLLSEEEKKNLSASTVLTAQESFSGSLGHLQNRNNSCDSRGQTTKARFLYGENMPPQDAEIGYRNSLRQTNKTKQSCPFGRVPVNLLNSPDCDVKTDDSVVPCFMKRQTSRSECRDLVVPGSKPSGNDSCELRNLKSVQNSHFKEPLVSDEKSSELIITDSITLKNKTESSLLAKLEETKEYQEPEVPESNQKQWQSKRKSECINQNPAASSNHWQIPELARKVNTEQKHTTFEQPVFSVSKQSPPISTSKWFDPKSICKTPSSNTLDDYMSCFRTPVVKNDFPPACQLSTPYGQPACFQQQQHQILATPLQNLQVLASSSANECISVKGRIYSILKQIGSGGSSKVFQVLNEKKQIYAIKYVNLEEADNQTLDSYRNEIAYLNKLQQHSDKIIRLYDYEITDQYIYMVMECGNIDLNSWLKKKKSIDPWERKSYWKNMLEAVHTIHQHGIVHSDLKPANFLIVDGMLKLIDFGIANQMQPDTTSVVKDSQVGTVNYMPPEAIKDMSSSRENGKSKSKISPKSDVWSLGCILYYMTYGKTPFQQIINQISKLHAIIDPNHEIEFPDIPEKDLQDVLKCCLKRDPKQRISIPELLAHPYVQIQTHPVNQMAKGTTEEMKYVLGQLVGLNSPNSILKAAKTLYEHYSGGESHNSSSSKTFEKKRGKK

[2] = system: colon cancer cells (HCT116); test: Cancer cell line growth inhibition (SRB assay); format: cell-based; settings: Homo sapiens, HCT-116; read-out: Cancer Cell Line GI50 Range HCT116

Row | GI50 [1] [nM] | GI50 (Breast cancer cells) [nM] | IC50 (human TTK) [nM] | GI50 [2] [nM] | Structure (SMILES)
1 | > 500 | > 500 | < 100 | > 500 | Cc1cc(=O)n(C)c2ccc(-c3n[nH]c4ccc(C(=O)N[C@H](c5ccccn5)C5CCCC5)cc34)cc12 [Example A239, (S)-N-(cyclopentyl(pyridin-2-yl)methyl)-3-(1,4-dimethyl-2-oxo-1,2-dihydroquinolin-6-yl)-1H-indazole-5-carboxamide]
2 | < 100 | 100 to 500 | < 100 | < 100 | CC(C)C[C@H](NC(=O)c1ccc2[nH]nc(-c3ccc(N4CCN(C5COC5)CC4)cc3)c2c1)c1ccccc1 [Example A371, (S)-N-(3-methyl-1-phenylbutyl)-3-(4-(4-(oxetan-3-yl)piperazin-1-yl)phenyl)-1H-indazole-5-carboxamide]
3 | 100 to 500 | > 500 | < 100 | 100 to 500 | O=C(N[C@@H](c1ccsc1)C1CC1)c1ccc2[nH]nc(-c3ccc(OC4CCN(C[C@@H](O)C(F)(F)F)CC4)cc3)c2c1 [Example A224, N-((R)-cyclopropyl(thiophen-3-yl)methyl)-3-(4-((1-((R)-3,3,3-trifluoro-2-hydroxypropyl)piperidin-4-yl)oxy)phenyl)-1H-indazole-5-carboxamide]
4 | < 100 | 100 to 500 | < 100 | < 100 | O=C(N[C@@H](c1ccccc1F)C1CC1)c1ccc2[nH]nc(-c3ccc(N4CCN(C5COC5)CC4)cc3)c2c1 [Example A270, (R)-N-(cyclopropyl(2-fluorophenyl)methyl)-3-(4-(4-(oxelan-3-yl)piperazin-1-yl)phenyl)-1H-indazole-5-carboxamide]

The next lines start with the molecule.

Row | Structure (SMILES) | GI50 [1] [nM] | GI50 (Breast cancer cells) [nM] | IC50 (human TTK) [nM] | GI50 [2] [nM]
5 | CCC(CC)(CNC(=O)c1ccc2[nH]nc(-c3ccc(N4CCN(C)CC4)cc3)c2c1)N1CCOCC1 [Example A465, N-(2-ethyl-2-morpholinobutyl)-3-(4-(4-methylpiperazin-1-yl)phenyl)-1H-indazole-5-carboxamide] | < 100 | 100 to 500 | < 100 | 100 to 500
6 | CN1C2CCC1CC(Oc1ccc(-c3n[nH]c4ccc(C(=O)NC(c5ccccn5)C5CCCC5)cc34)cc1)C2 (centres unmarked) [Example A398, N-(cyclopentyl(pyridin-2-yl)methyl)-3-(4-((8-methyl-8-azabicyclo[3.2.1]octan-3-yl)oxy)phenyl)-1H-indazole-5-carboxamide] | < 100 | < 100 | < 100 | < 100
7 | O=C(NC(c1ccccc1)C1CCC1)c1ccc2[nH]nc(-c3ccc(O[C@H]4C[C@H]5CC[C@@H](C4)N5C4COC4)cc3)c2c1 (stereo partly drawn) [Example A345, N-(cyclobutyl(phenyl)methyl)-3-(4-(((1R,3R,5S)-8-(oxetan-3-yl)-8-azabicyclo[3.2.1]octan-3-yl)oxy)phenyl)-1H-indazole-5-carboxamide] | 100 to 500 | 100 to 500 | < 100 | 100 to 500
8 | O=C(N[C@@H](c1ccccn1)C1CCCC1)c1ccc2[nH]nc(-c3ccc(N4C5COCC4CC(O)C5)cc3)c2c1 (stereo partly drawn) [Example A425, N-((R)-cyclopentyl(pyridin-2-yl)methyl)-3-(4-((1R,5S,7R)-7-hydroxy-3-oxa-9-azabicyclo[3.3.1]nonan-9-yl)phenyl)-1H-indazole-5-carboxamide] | < 100 | < 100 | < 100 | < 100
9 | CCC(CC)(CNC(=O)c1ccc2[nH]nc(-c3ccc(OC4CCN(C5COC5)CC4)cc3)c2c1)c1ccccc1 [Example A439, N-(2-ethyl-2-phenylbutyl)-3-(4-((1-(oxetan-3-yl)piperidin-4-yl)oxy)phenyl)-1H-indazole-5-carboxamide] | 100 to 500 | 100 to 500 | < 100 | 100 to 500
10 | CS(=O)(=O)c1cc(-c2n[nH]c3ccc(C(=O)NC(c4ccccn4)C4CC4)cc23)ccc1OC1CCNCC1 (centres unmarked) [Example A243, N-(cyclopropyl(pyridin-2-yl)methyl)-3-(3-(methylsulfonyl)-4-(piperidin-4-yloxy)phenyl)-1H-indazole-5-carboxamide] | > 500 | > 500 | < 100 | > 500
11 | CCC(CC)(CNC(=O)c1ccc2[nH]nc(-c3ccc(OC4CCN(C)CC4)cc3)c2c1)c1ccccc1 [Example A440, N-(2-ethyl-2-phenylbutyl)-3-(4-((1-methylpiperidin-4-yl)oxy)phenyl)-1H-indazole-5-carboxamide] | 100 to 500 | 100 to 500 | < 100 | 100 to 500

— patent US9580390B2, “Indazole compounds as kinase inhibitors and method of treating cancer with same” (University Health Network, priority 2011, dated 2017)
